Reference: the NIST ThermoML archive (doi:10.1021/je400272k)

Assay: wn = mass fraction of the nth substance listed
Conditions: Liquid, Vibrating tube method

CCCC[N+](CCCC)(CCCC)CCCC.[Br-] [tetrabutylammonium bromide] + O
mass density [kg/m3]
Conditions	283.15 K	285.15 K	288.15 K	291.15 K	293.15 K	298.15 K	303.15 K
100 kPa, w1 = 0.1	1008.7	1008.3	1007.6	1006.7	1006.2	1004.9	1003.2
100 kPa, w1 = 0.14	1012.9	1012.6	1011.6	1010.9	1010	1008.4	1006.3
100 kPa, w1 = 0.2	1019.9	1019.3	1018.1	1017	1016.3	1014.2	1011.9
100 kPa, w1 = 0.3	–	–	1029	1027.4	1026.3	1023.7	1020.7
100 kPa, w1 = 0.4	–	–	1038.5	1036.7	1035.3	1031.9	1028.6
1000 kPa, w1 = 0.1	–	–	1008	1007.1	1006.7	1005.3	1003.7
1000 kPa, w1 = 0.14	–	–	1012.1	1011.2	1010.4	1008.7	1006.6
1000 kPa, w1 = 0.2	–	–	1018.6	1017.4	1016.7	1014.5	1012.4
1000 kPa, w1 = 0.3	–	–	1029.4	1027.7	1026.8	1024	1021.2
1000 kPa, w1 = 0.4	–	–	1039	1037	1035.7	1032.3	1029.2
2000 kPa, w1 = 0.1	–	–	1008.4	1007.6	1007	1005.7	1004.1
2000 kPa, w1 = 0.14	–	–	1012.5	1011.6	1010.8	1009.1	1007
2000 kPa, w1 = 0.2	–	–	1019	1017.8	1017	1014.9	1012.8
2000 kPa, w1 = 0.3	–	–	1029.7	1028.1	1027.1	1024.4	1021.6
2000 kPa, w1 = 0.4	–	–	1039.4	1037.4	1036	1032.7	1029.5
3000 kPa, w1 = 0.1	–	–	1008.9	1008	1007.5	1006.1	1004.5
3000 kPa, w1 = 0.14	–	–	1012.9	1012	1011.2	1009.5	1007.4
3000 kPa, w1 = 0.2	–	–	1019.4	1018.2	1017.5	1015.3	1013.2
3000 kPa, w1 = 0.3	–	–	1030.1	1028.5	1027.5	1024.8	1022
3000 kPa, w1 = 0.4	–	–	1039.7	1037.8	1036.4	1033	1029.9
4000 kPa, w1 = 0.1	–	–	1009.2	1008.4	1007.9	1006.5	1005
4000 kPa, w1 = 0.14	–	–	1013.3	1012.4	1011.6	1009.9	1007.7
4000 kPa, w1 = 0.2	–	–	1019.7	1018.6	1017.8	1015.7	1013.6
4000 kPa, w1 = 0.3	–	–	1030.4	1028.8	1027.9	1025.1	1022.4
4000 kPa, w1 = 0.4	–	–	1040.1	1038.1	1036.8	1033.3	1030.3
5000 kPa, w1 = 0.1	–	–	1009.7	1008.7	1008.3	1006.9	1005.4
5000 kPa, w1 = 0.14	–	–	1013.7	1012.7	1012.1	1010.3	1008.1
5000 kPa, w1 = 0.2	–	–	1020.1	1018.8	1018.2	1016.1	1014
5000 kPa, w1 = 0.3	–	–	1030.7	1029.1	1028.2	1025.5	1022.7
5000 kPa, w1 = 0.4	–	–	1040.4	1038.4	1037.1	1033.7	1030.7
